Experimental data reported in patent publication EP1200395B1, “UREA DERIVATIVES AS INHIBITORS OF CCR-3 RECEPTOR” (KIRIN BEER KABUSHIKI KAISHA, priority 1999, dated 2001).

Tests used:
[1] = tested on: eosinophil infiltration to bronchoalveolar lavage fluid (BALF); experiment: Eosinophil infiltration in bronchoalveolar lavage fluid (BALF), murine asthma model; type: in vivo, Male BALB/c mice; settings: administered intraperitoneally for 9 days; two hundred cells counted per slide; Figure 2C
Method: (§1) Male BALB/c mice were immunized by an intraperitoneal injection of 10 µg OVA adsorbed to 1 mg aluminum hydroxide gel (alum). A booster injection of the same dose of alum-adsorbed OVA was given 5 days later. Unitnmunized control mice received saline.
(§2) Twelve days after primary immunization, both the immunized and unimmunized mice were exposed to aerosolized antigen. Aerosolization of OVA was performed using a nose-only aerosol chamber adapted for mice. Animals were exposed for 10 minutes to 5 mg/ml OVA aerosolized by an ultrasonic nebulizer (NE-U12, Omron, Tokyo, Japan) driven by a vacuum pump. The antigen bronchoprovocation was repeated on day 16 and day 20 under the same conditions. Compound No. 298 (CPD No. 298) was dissolved in saline containing 2 % DMSO and 2 % Cremophore and administered intraperitoneally for 9 days, starting on the first day of antigen inhalation.
Immediately after the measurement of airway reactivity to acethycholine, BALF was collected by lavaging whole-lung three times with 0.7-ml aliquots of physiological saline containing 0.1 % BSA via the tracheal cannula while gently massaging the thorax. The BALF recovered from one mouse was pooled, centrifuged, and the cells were resuspended in 100 µl saline containing 0.1 % BSA. Cell numbers were determined using a hemocytometer and 2 x 10^4 cells were cytecetrifuged onto a glass slide. […]

[2] = tested on: bronchoconstriction provoked by acetylcholine; experiment: Airway hyperreactivity: bronchoconstriction provoked by acetylcholine (murine asthma model, OVA-immunized mice); type: in vivo, Male BALB/c mice; settings: administered intraperitoneally for 9 days, starting on the first day of antigen inhalation; Figure 2A
Method: as §1, §2
Twenty-four hours after the final aerosol exposure, bronchoconstriction was measured by the overflow method of Konzett and Rössler. […] Bronchoconstriction was recorded on a flatbed recorder (Model FBR-252A, TOA Electronics Ltd., Tokyo, Japan). […]

CCR-3 = biological target: T1, CCR-3 (Homo sapiens, UniProt P51677); experiment: Eotaxin-induced chemotaxis of CCR-3 transfectant cells (CCR3/U937); type: cell-based; design: expressed in transfected cells; host or cells: U937; settings: U-937, 10 µM test compound, eotaxin 1 x 10^-9 M
T1 sequence (P51677 1-355): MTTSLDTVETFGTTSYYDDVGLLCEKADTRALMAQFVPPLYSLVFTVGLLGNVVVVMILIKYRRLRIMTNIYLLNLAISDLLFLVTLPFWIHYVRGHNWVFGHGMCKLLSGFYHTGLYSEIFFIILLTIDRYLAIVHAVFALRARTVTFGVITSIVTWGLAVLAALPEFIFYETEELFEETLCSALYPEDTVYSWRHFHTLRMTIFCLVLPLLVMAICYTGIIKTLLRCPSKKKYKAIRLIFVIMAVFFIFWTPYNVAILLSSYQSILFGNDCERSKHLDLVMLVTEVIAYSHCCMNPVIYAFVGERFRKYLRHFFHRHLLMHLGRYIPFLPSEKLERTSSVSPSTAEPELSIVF

[3] = tested on: collagen-induced arthritis; experiment: Type II collagen-induced arthritis in mice, clinical score; type: in vivo, Male DBA/1 mice; settings: 20 mg/kg per day subcutaneously starting at 2nd immunization; versus control vehicle; Figure 1A/1B
[4] = tested on: human-derived eosinophils; experiment: Eotaxin-induced chemotaxis of cultured eosinophils; type: cell-based; settings: Eosinophil; 10.00 µM compound; human eotaxin 1 x 10^-9 M; 37°C for 1 hour
Method: The inhibitory activity of the compounds against eotaxin-mediated chemotaxis of human-derived eosinophils was determined assay described below. Eosinophils were prepared from culture of human cord blood mononuclear cells as described by Ohashi, H. et al., Int Arch Allergy Immunol. (1999) 118, 44-50. For the assay, eosinophils were resuspended at 1 x 10^7 cells/ml in assay medium (RPMI 1640 medium containing 0.1 % bovine serum albumin (BSA)). The chemotaxis assay was performed in a 24-well culture plate. Human eotaxin suspended in assay medium was added into wells at 1 x 10^-9 M with test compounds at various concentrations. For a positive control, eotaxin was added without a test compound, and for a negative control, neither eotaxin nor a test compound was added to the wells. Chemotaxicell (Kurabo Co., Ltd.) having 5 micrometers pore size were inserted into each well and 100 microliters of eosinophil suspension were added to the top chamber. The plates were incubated at 37°C for 1 hour. After incubation, migrated cells in lower wells were diluted and counted by particle size distribution analyzer (CDP-500, Sysmex Co., Ltd.).

Row | inhibition at 10 µM (CCR-3; CCR3/U937 cells (Table 3c)) | inhibition at 10 µM (CCR-3; CCR3/U937 cells (Table 3a)) | Compound | eosinophil infiltration to bronchoalveolar lavage fluid (BALF) [1] | bronchoconstriction provoked by acetylcholine [2] | clinical score, collagen-induced arthritis [3] | inhibition at 10 µM [4]
1 | 100% | – | CC[N+](CCCNC(=O)Nc1ccccc1)(CCc1ccc(Cl)cc1)Cc1ccc(Cl)cc1.[I-] (stereo not shown) [Compound 298, [3-(Phenylureido)propyl][2-(4-chlorophenyl)ethyl](4-chlorobenzyl)ethylammonium iodide] | significantly suppressed eosinophil infiltration | Inhibition of bronchoconstriction | marked prevention in clinical score | –
2 | – | 98% | O=C(O)CCCN(CCCNC(=O)Nc1ccc(Br)cc1)C1CCCc2ccccc21 (stereo not shown) [Compound 60, 4-[[3-(4-Bromophenylureido)propyl](1,2,3,4-tetrahydro-1-naphthyl)amino]butanoic acid] | – | – | marked prevention in clinical score | 100%
